Data from patent publication US11390648B2, “Peptide” (HYSENSBIO, priority 2017, dated 2022).

Test system: Dspp gene
Assay: Dspp mRNA level in human dental pulp cells treated with peptide (real-time PCR)
Type: cell-based
Conditions: hDPCs, peptide 10 μg/ml, 48 hours; ratio relative to Dspp mRNA level of untreated control; GAPDH internal control; triplicate
Description: Human dental pulp cells were separated from wisdom teeth of adults (aged 18-22) at the School of Dentistry, Seoul National University. In detail, all experiments were performed after the approval of the Institutional Review Board and the informed consent from patients. Wisdom teeth were fractured according to a method of Jung HS et al. (J Mol Histol.(2011)) to expose the dental pulps, and dental pulp tissues were separated with forceps. Each of the separated dental pulp tissues was cut into small pieces with a razor blade, put in a 60-mm dish, covered with a coverslip, and then cultured in a Dulbecco's modified Eagle's medium. It has been known that human dental pulp cells can differentiate into odontoblast, osteoblast, cementoblast, and periodontal ligament cells under various conditions (Tissue Eng Part A. 2014 April; 20 (7-8): 1342-51).
Total RNA was extracted from human dental pulp cells (hDPCs), and human bone marrow mesenchymal stem cells (hBMSCs) with TRIzol reagent. 2 μg of the total RNA, 1 μl of reverse transcriptase, and 0.5 μg of oligo (oligo; dT) were used to synthesize cDNA. The synthesized cDNA was used in a real-time polymerase chain reaction. The real-time polymerase chain reaction was performed on an ABI PRISM 7500 sequence detection system (Applied Biosystems) and an SYBR GREEN PCR Master Mix (Takara, Japan). The real-time polymerase chain reaction was performed under conditions of 94° C., 1 min; 95° C., 15 sec; 60° C., 34 sec for 40 cycles. Results were analyzed by a comparative cycle threshold (CT) method. And the used primers are as follows (Table 17).
The human dental pulp cells (hDPCs) cultured in Example 3 were treated with the peptides (concentration of 10 μg/ml) of each group synthesized in Example 1-1, and cultured for 48 hours. Then, mRNA levels of an odontoblast differentiation marker Dspp gene expressed in the human dental pulp cells were measured, and a ratio of the measured Dspp mRNA level relative to a Dspp mRNA level measured in a control group was calculated, respectively (Tables 18 to 33).
The expression level of the Dspp gene was measured through RT-PCR and real-time PCR analysis described in Example 1-4. In this regard, GAPDH gene was used as an internal control. The experiments were performed in triplicate, and then mean values and standard deviations thereof were taken as measured values. The base sequence of the primers is described in Table 17 above.

5 (KYQRKKK; Novel peptide) [compound 5]
mRNA level of Dspp gene, Mean: 6.893

72 (KYNRKRR; Novel peptide) [compound 72]
mRNA level of Dspp gene, Mean: 1.739

63 (KYNKKKR; Novel peptide) [compound 63]
mRNA level of Dspp gene, Mean: 2.373

55 (KYQKKKR; Novel peptide) [compound 55]
mRNA level of Dspp gene, Mean: 2

25 (KYQQRKK; Novel peptide) [compound 25]
mRNA level of Dspp gene, Mean: 2.491

60 (KYNKRRR; Novel peptide) [compound 60]
mRNA level of Dspp gene, Mean: 2.089

87 (KYKNKKR; Novel peptide) [compound 87]
mRNA level of Dspp gene, Mean: 1.888

125 (KYKKKKK; Novel peptide) [compound 125]
mRNA level of Dspp gene, Mean: 2.082

119 (KYRNKKR; Novel peptide) [compound 119]
mRNA level of Dspp gene, Mean: 2.121

80 (KYRNKRR; Novel peptide) [compound 80]
mRNA level of Dspp gene, Mean: 2.636

19 (KYKQRRK; Novel peptide) [compound 19]
mRNA level of Dspp gene, Mean: 7.931

35 (KYRRRRK; Novel peptide) [compound 35]
mRNA level of Dspp gene, Mean: 3.017

75 (KYRNRRK; Novel peptide) [compound 75]
mRNA level of Dspp gene, Mean: 2.624

12 (KYRQRRR; Novel peptide) [compound 12]
mRNA level of Dspp gene, Mean: 7.548

120 (KYRNKRR; Novel peptide) [compound 120]
mRNA level of Dspp gene, Mean: 1.878

126 (KYKKKRK; Novel peptide) [compound 126]
mRNA level of Dspp gene, Mean: 1.798

41 (KYKRRKK; Novel peptide) [compound 41]
mRNA level of Dspp gene, Mean: 2.937

69 (KYNRKKK; Novel peptide) [compound 69]
mRNA level of Dspp gene, Mean: 1.899

50 (KYQKRKR; Novel peptide) [compound 50]
mRNA level of Dspp gene, Mean: 1.803

100 (KYNQRRR; Novel peptide) [compound 100]
mRNA level of Dspp gene, Mean: 1.599

48 (KYKRKRR; Novel peptide) [compound 48]
mRNA level of Dspp gene, Mean: 2.602

92 (KYQNRRR; Novel peptide) [compound 92]
mRNA level of Dspp gene, Mean: 1.498

90 (KYQNRKR; Novel peptide) [compound 90]
mRNA level of Dspp gene, Mean: 1.797

7 (KYQRKKR; Novel peptide) [compound 7]
mRNA level of Dspp gene, Mean: 6.881

107 (KYNNRRK; Novel peptide) [compound 107]
mRNA level of Dspp gene, Mean: 1.935

30 (KYQQKRK; Novel peptide) [compound 30]
mRNA level of Dspp gene, Mean: 2.011

124 (KYKKRRR; Novel peptide) [compound 124]
mRNA level of Dspp gene, Mean: 2.017

104 (KYNQKRR; Novel peptide) [compound 104]
mRNA level of Dspp gene, Mean: 1.878

45 (KYKRKKK; Novel peptide) [compound 45]
mRNA level of Dspp gene, Mean: 3.051

38 (KYRRKRK; Novel peptide) [compound 38]
mRNA level of Dspp gene, Mean: 2.099

43 (KYKRRRK; Novel peptide) [compound 43]
mRNA level of Dspp gene, Mean: 2.435

106 (KYNNRKR; Novel peptide) [compound 106]
mRNA level of Dspp gene, Mean: 1.673

23 (KYKQKKR; Novel peptide) [compound 23]
mRNA level of Dspp gene, Mean: 9.171

67 (KYNRRRK; Novel peptide) [compound 67]
mRNA level of Dspp gene, Mean: 2.452

122 (KYKKRKR; Novel peptide) [compound 122]
mRNA level of Dspp gene, Mean: 1.979

56 (KYQKKRR; Novel peptide) [compound 56]
mRNA level of Dspp gene, Mean: 1.909

26 (KYQQRKR; Novel peptide) [compound 26]
mRNA level of Dspp gene, Mean: 2.623

91 (KYQNRRK; Novel peptide) [compound 91]
mRNA level of Dspp gene, Mean: 1.913

127 (KYKKKKR; Novel peptide) [compound 127]
mRNA level of Dspp gene, Mean: 1.888

44 (KYKRRRR; Novel peptide) [compound 44]
mRNA level of Dspp gene, Mean: 2.517

66 (KYNRRKR; Novel peptide) [compound 66]
mRNA level of Dspp gene, Mean: 2.072

110 (KYNNKRK; Novel peptide) [compound 110]
mRNA level of Dspp gene, Mean: 1.595

16 (KYRQKRR; Novel peptide) [compound 16]
mRNA level of Dspp gene, Mean: 7.739

34 (KYRRRKR; Novel peptide) [compound 34]
mRNA level of Dspp gene, Mean: 3.727

15 (KYRQKKR; Novel peptide) [compound 15]
mRNA level of Dspp gene, Mean: 6.764

32 (KYQQKRR; Novel peptide) [compound 32]
mRNA level of Dspp gene, Mean: 2.303

20 (KYKQRRR; Novel peptide) [compound 20]
mRNA level of Dspp gene, Mean: 7.553

99 (KYNQRRK; Novel peptide) [compound 99]
mRNA level of Dspp gene, Mean: 1.737

49 (KYQKRKK; Novel peptide) [compound 49]
mRNA level of Dspp gene, Mean: 1.631

18 (KYKQRKR; Novel peptide) [compound 18]
mRNA level of Dspp gene, Mean: 7.319

3 (KYQRRRK; Novel peptide) [compound 3]
mRNA level of Dspp gene, Mean: 6.512

83 (KYKNRRK; Novel peptide) [compound 83]
mRNA level of Dspp gene, Mean: 2.001

85 (KYKNKKK; Novel peptide) [compound 85]
mRNA level of Dspp gene, Mean: 1.838

98 (KYNQRKR; Novel peptide) [compound 98]
mRNA level of Dspp gene, Mean: 1.479

4 (KYQRRRR; Novel peptide) [compound 4]
mRNA level of Dspp gene, Mean: 7.071

53 (KYQKKKK; Novel peptide) [compound 53]
mRNA level of Dspp gene, Mean: 1.422

116 (KYRKRRR; Novel peptide) [compound 116]
mRNA level of Dspp gene, Mean: 1.693

109 (KYNNKKK; Novel peptide) [compound 109]
mRNA level of Dspp gene, Mean: 1.756

59 (KYNKRRK; Novel peptide) [compound 59]
mRNA level of Dspp gene, Mean: 2.463

14 (KYRQKRK; Novel peptide) [compound 14]
mRNA level of Dspp gene, Mean: 6.839

82 (KYKNRKR; Novel peptide) [compound 82]
mRNA level of Dspp gene, Mean: 1.909

70 (KYNRKRK; Novel peptide) [compound 70]
mRNA level of Dspp gene, Mean: 1.947

111 (KYNNKKR; Novel peptide) [compound 111]
mRNA level of Dspp gene, Mean: 1.918

112 (KYNNKRR; Novel peptide) [compound 112]
mRNA level of Dspp gene, Mean: 1.699

84 (KYKNRRR; Novel peptide) [compound 84]
mRNA level of Dspp gene, Mean: 2.101

73 (KYRNRKK; Novel peptide) [compound 73]
mRNA level of Dspp gene, Mean: 2.208

74 (KYRNRKR; Novel peptide) [compound 74]
mRNA level of Dspp gene, Mean: 2.105

71 (KYNRKKR; Novel peptide) [compound 71]
mRNA level of Dspp gene, Mean: 2.052

39 (KYRRKKR; Novel peptide) [compound 39]
mRNA level of Dspp gene, Mean: 3.412

40 (KYRRKRR; Novel peptide) [compound 40]
mRNA level of Dspp gene, Mean: 3.109

28 (KYQQRRR; Novel peptide) [compound 28]
mRNA level of Dspp gene, Mean: 2.781

65 (KYNRRKK; Novel peptide) [compound 65]
mRNA level of Dspp gene, Mean: 2.201

9 (KYRQRKK; Novel peptide) [compound 9]
mRNA level of Dspp gene, Mean: 7.543

93 (KYQNKKK; Novel peptide) [compound 93]
mRNA level of Dspp gene, Mean: 1.892

101 (KYNQKKK; Novel peptide) [compound 101]
mRNA level of Dspp gene, Mean: 1.674

10 (KYRQRKR; Novel peptide) [compound 10]
mRNA level of Dspp gene, Mean: 6.996

11 (KYRQRRK; Novel peptide) [compound 11]
mRNA level of Dspp gene, Mean: 7.385

79 (KYRNKKR; Novel peptide) [compound 79]
mRNA level of Dspp gene, Mean: 2.403

24 (KYKQKRR; Novel peptide) [compound 24]
mRNA level of Dspp gene, Mean: 8.512

88 (KYKNKRR; Novel peptide) [compound 88]
mRNA level of Dspp gene, Mean: 1.539

64 (KYNKKRR; Novel peptide) [compound 64]
mRNA level of Dspp gene, Mean: 1.829

105 (KYNNRKK; Novel peptide) [compound 105]
mRNA level of Dspp gene, Mean: 1.664

51 (KYQKRRK; Novel peptide) [compound 51]
mRNA level of Dspp gene, Mean: 1.569

89 (KYQNRKK; Novel peptide) [compound 89]
mRNA level of Dspp gene, Mean: 1.635

6 (KYQRKRK; Novel peptide) [compound 6]
mRNA level of Dspp gene, Mean: 6.931

114 (KYRKRKR; Novel peptide) [compound 114]
mRNA level of Dspp gene, Mean: 1.849
